From patent US5968487A (L'Oreal, priority 1996, dated 1999)

Target: T1, human melanocyte tyrosinase (Homo sapiens, UniProt P14679)
T1 construct: endogenous in cells; host or cells: cultured human melanocytes (Triton X-100 / ultrasound extract after 3 days' culture with the compound)
T1 sequence (P14679 19-529): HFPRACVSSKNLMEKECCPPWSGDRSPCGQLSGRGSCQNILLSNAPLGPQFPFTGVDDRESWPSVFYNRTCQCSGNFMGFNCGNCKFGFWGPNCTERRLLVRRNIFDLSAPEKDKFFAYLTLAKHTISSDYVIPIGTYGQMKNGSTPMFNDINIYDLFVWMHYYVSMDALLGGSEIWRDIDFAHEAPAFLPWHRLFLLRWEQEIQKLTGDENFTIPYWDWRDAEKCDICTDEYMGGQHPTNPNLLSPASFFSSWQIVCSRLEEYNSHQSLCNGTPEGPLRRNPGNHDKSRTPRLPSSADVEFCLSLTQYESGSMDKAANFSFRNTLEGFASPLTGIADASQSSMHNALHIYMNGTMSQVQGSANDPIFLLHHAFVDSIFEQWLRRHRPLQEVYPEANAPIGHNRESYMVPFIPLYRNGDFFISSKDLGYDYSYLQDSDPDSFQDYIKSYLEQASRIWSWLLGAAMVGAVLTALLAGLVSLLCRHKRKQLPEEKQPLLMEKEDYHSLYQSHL
Assay: dopa-oxidase activity of human melanocyte tyrosinase after 3-day culture of melanocytes with the compound
Type: cell-based
Settings: human melanocytes cultured three days with compound; lysate + 5 mM L-dopa, absorbance at 475 nm (dopachrome), 25° C., 60 minutes; read-out: IC50, concentration of active product required to obtain a 50% inhibition of the production of melanin
Method: After three days, the melanocytes were "trypsinized" in a mixture of trypsin/0.05% EDTA/0.02% in a phosphate buffer (50 mM at pH 6.8), washed three times in phosphate buffer containing 1% (w/v) Triton X-100 and subjected to ultrasound. After centrifugation, samples were taken and mixed with 5 mM L-dopa in phosphate buffer. The tyrosinase activity was evaluated by spectrophotometry by measuring the increase in the absorbance at 475 nm due to the formation of dopachrome from 5 mM dopa. The absorbance was read on a microplate reader at 25° C. for 60 minutes.
The activity of the cellular tyrosinase is measured relative to a standard range prepared with commercial tyrosinase.
The value of IC50, i.e., the concentration of active product required to obtain a 50% inhibition of the production of melanin, is determined.

O=C1NC(C(=O)OCc2cc(=O)c(O)co2)CS1 (stereo not shown) [5-hydroxy-4-oxo-4H-pyran-2-ylmethyl 2-oxothiazolidine-4-carboxylate]
IC50: 200 to 300 µM
